Data as given in patent US20110028458A1, “INHIBITION OF CELL MIGRATION BY A FARNESYLATED DIBENZODIAZEPINONE” (THALLION PHARMACEUTICALS INC., priority 2008, published 2011).

Columns and labels:
Format in all cases: cell-based, human
Conditions in all cases: 72 hours
MES-SA = assay: MTT growth inhibitory assay, MES-SA
Experimental: (§1) Growth inhibitory activity of TLN-4601 (Compound 1) and other dibenzodiazepinone analogs was evaluated on a panel of 4 human tumor cell lines: the human uterine sarcoma MES-SA and its doxorubicin-resistant P-glycoprotein over-expressing variant, MES-SA/DX5 as well as non-aggressive and highly aggressive human breast cell lines, MCF-7 and MDA-MB-231, respectively. These four cell lines were obtained from the American Type Culture Collection (Manassas, Va.) and cultured in RPMI plus 10% fetal bovine serum (FBS) and maintained at 37° C. with 5% CO2.
(§2) Exponentially growing cells (5,000 cells per well time; cell number determined with a hemocytometer) were seeded in 96-well flat-bottom plates and allowed to grow overnight. Cells were then incubated for 72 hours with three different concentrations of TLN-4601 or analogs: 30, 10, and 3 μM. The in vitro growth inhibitory activity was determined by a commercial MTT assay. All measurements were done in quadruplicate and each experiment was performed 2-3 times. The lower the value, the more cytotoxic is the compound.

MES-SA/DX5 = assay: MTT growth inhibitory assay, MES-SA/DX5
Experimental: as §1, §2

MCF-7 = assay: MTT growth inhibitory assay, MCF-7
Experimental: as §1, §2

MDA-MB-231 = assay: MTT growth inhibitory assay, MDA-MB-231
Experimental: as §1, §2

In the case of `CC(C)=CCC/C(C)=C/CC/C(C)=C/CN1C(=O)c2cccc(O)c2N(C)c2c1cc(O)c(Br)c2O` [Compound 99], the “% T/C at 10 μM, MES-SA” value (MES-SA) is reported as 28%, the “% T/C at 10 μM, MES-SA/DX5” value (MES-SA/DX5) is reported as 24% and the “% T/C at 10 μM, MCF-7” value (MCF-7) is reported as 50%. For the same compound, the “% T/C at 10 μM, MDA-MB-231” value (MDA-MB-231) was 55%.
